Consider two compounds from patent US20250302721A1, “ANTI-AGING EYE CREAM” (L'OREAL, priority 2024, published 2025).

Assay [1] deals with Full-thickness reconstructed skin (T-Skin, Episkin). The experiment in a line: sGAG release in full-thickness reconstructed skin (sulfated glycosaminoglycan assay kit). The format is cell-based. The following applies: PX 0.02% and 0.06% in medium, Day 11 through Day 15, medium supernatant, n=3, FIG. 7. On the procedure: Full-thickness reconstructed skin (T-Skin, Episkin) was treated systemically with hydroxypropyl tetrahydropyrantriol (PX, 0.02% and 0.06%) based on the T-skin evaluation test. Tissues are received on medium at day 11 and stored at 37C (95% humidity and 5% CO2) until the end of treatments at […]. The tissue receive medium and medium+hydroxypropyl tetrahydropyrantriol starting from Day 11 through Day 15 (n=3). At Day 15, the medium supernatant was collected to be measured with the sulfated glycosaminoglycan assay kit (ab289846, Abcam). For analysis, sGAG release of the supernatant was quantified based on vendor protocol.

For assay [2], the system named is Normal adult human epidermal keratinocytes (NHEK-Ad). The experiment in a line: keratinocyte proliferation (Ki67 vs DAPI staining). The class given is cell-based. Particulars: 48 hours, FIG. 9 and FIG. 10. As for the experimental part: Normal adult human epidermal keratinocytes (NHEK-Ad, Cat #00192627, Lonza, Switzerland) were maintained in basal growth medium (KGM Gold keratinocyte Growth Medium Bulletkit, Cat #00192060) until the initiation of the proliferation experiment. The keratinocytes were seeded at a concentration of 1×10^3/24 well and allowed to equilibrate overnight (n=3/group). The cell culture medium was switched with fresh growth containing different concentrations of hydroxypropyl tetrahydropyrantriol (0.005%, 0.017%, and 0.05%), NAM (0.0012%, 0.004%, and 0.012%) alone and combination of hydroxypropyl tetrahydropyrantriol+niacinamide (PX/NAM). The cells were incubated for 48 hours and the keratinocytes were stained against KI67 primary antibody (Anti-Ki67 antibody, Cat #ab15580, Abcam) and goat anti-rabbit IgG Alexa Fluor®488 secondary antibody (Cat #150077, Abcam). The Ki67 and DAPI fluorescent signals were captured using a fluorescent microscope (DMi8, Leica). The Ki67 expression was quantified against total cell nucleus staining (DAPI staining solution, ab228549, Abcam) in order to calculate the number of proliferating cells vs. total number of cells.

In the case of `CC(O)C[C@@H]1OC[C@@H](O)[C@H](O)[C@H]1O` (stereo partly drawn) [hydroxypropyl tetrahydropyrantriol, C-beta-D-xylopyranoside-2-hydroxypropane], the sGAG release result in assay [1] was “increase sGAG release”.
`NC(=O)c1cccnc1` [niacinamide]: the “skin cell proliferation (Ki67 vs total nuclei)” value in assay [2] (0.004% niacinamide) and in assay [2] (0.012% niacinamide) was “significantly increase proliferation” throughout.
